Laboratory results taken from patent US4119667A, “Haloaniline derivatives as plant growth modifiers” (Rohm and Haas Company, priority 1974, dated 1978).
Structures can show the parent of a compound that is named as a salt. Where two headings read alike, the source gives them in different places.

Experiments:
[1] = tested on: soybean (Var. Clark); experiment: greenhouse growth regulator test on soybean (Table I); format: in vivo; details: two weeks after application; for Injury (0-10): 0-10 scale, 0 = no effect, 10 = complete kill; for pest or weed control / pest or weed control at 2241.7 g/ha: Glycine max, foliar, 336 h, read-out: Height (% inhib.); for pest or weed control / pest or weed control at 2241.7 g/ha / Height (% inhib.): relative to control
Text: Limited greenhouse experiments shown that there is promotion of lateral bud growth when compounds are applied at higher concentrations and earlier timings and an increase in soybean pod numbers at lower rates applied just prior to or at the flowering stage. […] Three parameters are reported in Table I to indicate the general spectrum of activity for each evaluated compound including the propensity for releasing lateral bud growth in soybeans. These are: (a) plant height measured as percent inhibition relative to the control; (b) the number of lateral buds per plant; and (c) phytotoxic injury on a scale of 0 to 10 (10 being maximum injury). Sampling compounds were evaluated in the greenhouse in a special growth regulator test. Four to five soybean seeds (Var. Clark) were planted in 4-inch pots with a humus-soil mixture. Two weeks after planting, two uniform plants were selected from each pot for treatment. The candidate compounds were dissolved in acetone-water (1:1), and applied as a foliar spray in a carrier volume of 50 gallons per acre, using a moving belt sprayer at a rate of 1/4, 1/2 and 2 lbs/acre. Six plants were used for each treatment. Two weeks after application, the number of laterals per plant, plant injury (0-10 scale; 0 = no effect, 10 = complete kill,) and the height of each plant were recorded. Untreated plants were used as controls.

[2] = tested on: soybean (Var. Clark); experiment: effect of haloaniline derivatives on soybean yields at different rates and stages of growth (Table VIII); format: in vivo
Method: a further experiment was conducted to determine the effect of selected haloaniline derivatives on soybean yields at different rates of application, and at differing stages of growth.
Soybeans (Var. Clark) were planted at the rate of 4 seeds per 6 inch pot in a medium of 1 part humus and 2 parts soil. Two weeks after planting two uniform plants were selected from each pot for treatment. The soybeans were treated weekly with a high analysis liquid fertilizer. The candidate compounds were dissolved in acetone-water (1:1) and applied at three timings as a foliar spray in a carrier volume of 50 gallons per acre using a moving belt sprayer at rates ranging from 0.1 to two lbs. per acre. Six plants were used for each treatment. The beans were harvested eight weeks after the third treatment and the seeds and pods per plant were counted.

Row | Compound | No. Laterals per plant ([1]; 1/2 lbs/acre foliar spray) | Injury (0-10) ([1]; 1/2 lbs/acre) | No. Laterals per plant ([1]; 1/4 lbs/acre foliar spray) | Injury (0-10) ([1]; 1/4 lbs/acre) | No. Laterals per plant ([1]; 2 lbs/acre foliar spray) | Injury (0-10) ([1]; 2 lbs/acre) | pest or weed control ([1]; 1/2 lbs/acre foliar spray) | pest or weed control ([1]; 1/4 lbs/acre foliar spray) | pest or weed control at 2241.7 g/ha ([1]; 2 lbs/acre foliar spray) | also measured
1 | Clc1cc(Cl)cc(NCNc2cc(Cl)cc(Cl)c2)c1 [I, N,N'-Bis[3,5-dichlorophenyl]methanediamine] | 3 | 0 | 1 | 0 | 5 | 1 | 4% | 5% | 17% | Pods per Plant ([2]; 2nd treatment, 0.10 lbs./A): 24.5; Seeds per Plant ([2]; 2nd treatment, 0.10 lbs./A): 42.7; Seeds per Pod ([2]; 2nd treatment, 0.10 lbs./A): 1.7; Pods per Plant ([2]; 2nd treatment, 0.30 lbs./A): 14.5; Seeds per Plant ([2]; 2nd treatment, 0.30 lbs./A): 9.3; Seeds per Pod ([2]; 2nd treatment, 0.30 lbs./A): 0.6; Pods per Plant ([2]; 2nd treatment, 0.90 lbs./A): 9.0; Seeds per Plant ([2]; 2nd treatment, 0.90 lbs./A): 4.3; Seeds per Pod ([2]; 2nd treatment, 0.90 lbs./A): 0.5; Pods per Plant ([2]; 3rd treatment, 0.10 lbs./A): 7.0; Seeds per Plant ([2]; 3rd treatment, 0.10 lbs./A): 12.8; Seeds per Pod ([2]; 3rd treatment, 0.10 lbs./A): 1.8; Pods per Plant ([2]; 3rd treatment, 0.30 lbs./A): 8.3; Seeds per Plant ([2]; 3rd treatment, 0.30 lbs./A): 13.3; Seeds per Pod ([2]; 3rd treatment, 0.30 lbs./A): 1.6; Pods per Plant ([2]; 3rd treatment, 0.90 lbs./A): 7.2; Seeds per Plant ([2]; 3rd treatment, 0.90 lbs./A): 13.3; Seeds per Pod ([2]; 3rd treatment, 0.90 lbs./A): 1.5
2 | Clc1cccc(C=Nc2ccc(Cl)c(Cl)c2)c1 [X, 3,4-dichloro-N-(3-chlorobenzylidene)aniline] | 3 | 1 | 1 | 0 | 3 | 3 | 14% | 9% | 13% | –
3 | Clc1ccc(C=Nc2ccc(Cl)c(Cl)c2)cc1 [XI, 3,4-dichloro-N-(4-chlorobenzylidene)aniline] | 5 | 1 | 1 | 0 | 4 | 3 | 25% | 4% | 14% | –
4 | Clc1ccc(N=Cc2c(Cl)cccc2Cl)cc1Cl [XII, 3,4-dichloro-N-(2,6-dichlorobenzylidene)aniline] | 2 | 1 | 1 | 1 | 6 | 1 | – | 5% | 18% | –
5 | Clc1cc(Cl)cc(N=CNc2cc(Cl)cc(Cl)c2)c1 [XIV, N,N'-Bis[3,5-dichlorophenyl]formamidine] | 3 | 3 | 1 | 2 | 4 | 0 | 11% | 13% | – | Height (% inhib.) ([1]; 2 lbs/acre foliar spray): 4 % inhib.
6 | O=CNc1ccc(Cl)c(Cl)c1 [XIX, 3',4'-dichloroformanilide] | 0 | 0 | 5 | 1 | 4 | 3 | 0% | 2% | 13% | –
7 | Clc1ccc(N=CNc2ccc(Cl)c(Cl)c2)cc1Cl [XV, n,n'-bis[3,4-dichlorophenyl]formamidine] | 2 | 2 | 2 | 2 | 2 | 1 | – | – | – | Height (% inhib.) ([1]; 1/2 lbs/acre foliar spray): 15 % inhib.; Height (% inhib.) ([1]; 1/4 lbs/acre foliar spray): 23 % inhib.; Height (% inhib.) ([1]; 2 lbs/acre foliar spray): 4 % inhib.
8 | CCOC=Nc1cc(Cl)cc(Cl)c1 [XVI, Ethyl N-(3,5-dichlorophenyl)formimidate] | 4 | 1 | 2 | 1 | 5 | 2 | 2% | 0% | 22% | –
9 | CCOC=Nc1ccc(Cl)c(Cl)c1 [XVII, ethyl N-(3,4-dichlorophenyl)formimidate] | 0 | 1 | 2 | 2 | 4 | 6 | – | 24% | 34% | –
10 | Cl.Clc1cc(Cl)cc(N=CNc2cc(Cl)cc(Cl)c2)c1 [XX, N,N'-Bis[3,5-dichlorophenyl]formamidine hydrochloride] | 4 | 2 | 2 | 2 | 6 | 0 | – | – | – | Height (% inhib.) ([1]; 1/2 lbs/acre foliar spray): 19 % inhib.; Height (% inhib.) ([1]; 1/4 lbs/acre foliar spray): 10 % inhib.; Height (% inhib.) ([1]; 2 lbs/acre foliar spray): 44 % inhib.
11 | Clc1ccc(N=CNc2ccc(Cl)c(Cl)c2)cc1Cl [XXI, n,n'-bis[3,4-dichlorophenyl]formamidine HCl] | – | – | – | – | – | – | – | – | – | Height (% inhib.) ([1]; 1/2 lbs/acre foliar spray, HCl): 4 % inhib.; No. Laterals per plant ([1]; 1/2 lbs/acre foliar spray, HCl): 4; Injury (0-10) ([1]; 1/2 lbs/acre, HCl): 1; Height (% inhib.) ([1]; 1/4 lbs/acre foliar spray, HCl): 0 % inhib.; No. Laterals per plant ([1]; 1/4 lbs/acre foliar spray, HCl): 1; Injury (0-10) ([1]; 1/4 lbs/acre, HCl): 0; Height (% inhib.) ([1]; 2 lbs/acre foliar spray, HCl): 20 % inhib.; No. Laterals per plant ([1]; 2 lbs/acre foliar spray, HCl): 5
12 | CCOC(CC)=Nc1cc(Cl)cc(Cl)c1 [XXII, Ethyl N-(3,5-dichlorophenyl)propionimidate] | 3 | 1 | 1 | 2 | 3 | 1 | – | – | – | –
